One assay has as its target T1, full-length human BTK-WT (Homo sapiens, UniProt Q06187).
T1 construct: The full-length human BTK-WT (ABCAM205800); purchased Abcam ABCAM205800; host or cells: Baculovirus infected Sf9 cells
Kind of assay: BTK-WT kinase activity assay (ADP-Glo). It is filed as biochemical. The following applies: BTK kinase inhibition, 30 min preincubation, 90 min reaction. On the procedure:
(§1) These assays are to determine the degree of inhibition of the BTK-WT and BTK-C481S mutant kinase activity by measuring the amount of ADP produced during the enzymatic reactions. […] Compounds, BTK enzymes, ATP and substrate were all prepared in ix kinase assay buffer by diluting 5× stock of kinase assay buffer III (Signal Chem K03-09), in H2O, and adding DTT (Thermo ScientificA39255) for a final concentration of 50 μM. […] Then the plate was kept shaking for 30 min at room temperature to allow the binding of the compounds to the proteins. After the preincubation, ATP and the substrate, a total of 5 μL was added into each well. The plate was then spun down at 1000 rpm for 2 minutes and kept shaking for 90 min at room temperature. ADP detection was performed following the guidance from the ADP-Glo Kinase Assay kits (Promega V9101). Briefly, 10 μL of ADP-Glo reagent was added into each well. The plate was then spun down at 1000 rpm for 2 minutes and kept shaking at room temperature for 60 min. Twenty μL of the kinase detection solution was added into each well. The plate was incubated at room temperature for 30 min in dark. The plates were read for luminescence signals in Tecan M1000 directly following the 30 min incubation. Relative inhibition of BTK kinase activities were analyzed by calculating the luminescence signal change:
(§2) Data was input into GraphPad Prism, and the IC50 values were calculated using function “log(inhibitor) vs. response—Variable slope (four parameters)”.
(ADP-Glo first removes unused ATP, then detects ADP through luciferase.)

Assay [1] has as its system human TMD-8 diffuse large B-cell lymphoma cells. Kind of assay: BTK-dependent cell proliferation in human TMD-8 cells (CellTiter-Glo). The assay is classed as cell-based. The following applies: TMD8, 72 h, TMD-8 DLBCL cells, 3 days, absolute IC50. On the procedure: The human TMD-8 DLBCL cancer cells were cultured in RPMI media with high glucose and glutamine (Genesee 25-506), 20% heat-inactivated FBS (Gibco 10100), penicillin streptomycin (Thermal Fisher 15140122) and 1 mM sodium pyruvate (Thermal Fisher 11360070). TMD-8 cells were centrifuged at 300 g for 5 minutes and the cells were resuspended into fresh cell culture media. The cells were counted and made to a cell stock of 1.3 million/mL. Then 75 μL of cells were seeded into each well of a white 96-well cell culture plate (Corning 353286). A serial dilution of compounds was made and 25 μL was added to each well. The plates were incubated for 3 days in a humidified, 5% CO2 atmosphere at 37° C. Inhibition of cell growth by the compounds was determined by measuring the ATP level generated by the cells with the Cell Titer-Glo Luminescent Cell Viability Kit (Promega G7572). Assay procedures were conducted according to the protocols provided by Promega. In brief, the treated cell-culture plate and its contents were equilibrated at room temperature for approximately 30 minutes. 100 μL of CellTiter-Glo® Reagent was added into each cell-culture well, and contents were mixed for 2 minutes on an orbital shaker to induce cell lysis. The plate was incubated at room temperature for 10 minutes to stabilize luminescent signal. The resulting luminescence signal was immediately read using a TECAN plate reader. The relative cell grow inhibition was calculated by Cell Titer-Glo luminescent signal change.
The average readings of media-only wells and the readings of positive control wells (no compound treatment) were used to calculate response percentage.
The data was input into GraphPad Prism, and the curve fitting was made using function “log(inhibitor) vs. response—Variable slope (four parameters)”. The interpolation function was used to calculate absolute IC50 values.
Background: In ATP-based viability assays light output follows the ATP content of the culture.

The next assay has as its target T2, BTK-C481S mutant (Homo sapiens, UniProt Q06187, C481S).
T2 construct: host or cells: HEK293 (ATCC CRL1573), lentiviral transduction, puromycin selected
Description: BTK-Y223 autophosphorylation in HEK293 cells stably expressing BTK-C481S (HTRF). It is filed as cell-based. The settings on record: 2 hours treatment. The method, then: (§3) HEK293 cells (purchased from ATCC, CRL1573) stably expressing wild type BTK or mutant C481S BTK were generated by lentiviral transduction of constructs containing human BTK-WT or BTK-C481S mutant (Genecopoeia, Lv201 vector). Cells expressing BTK proteins were selected with puromycin treatment (1 μM). The protein expression was confirmed by western blotting of BTK and BTK-Y223 autophosphorylation. The cells were cultured in MEM medium (Sigma M2279), 10% heat-Inactivated FBS (Gibco 10100), penicillin streptomycin (Thermal Fisher 15140122), and puromycin (InvivoGen QLL-41-03). The BTK-Y223 phosphorylation was quantified using BTK phospho-Y223 kit (Cisbio 63ADK017PEG). HEK293/BTK stable cells were seeded in a 96-well plate at a density of 10 thousand cells/well in a total volume of 100 μL of media. Cells were incubated overnight in a humidified, 5% CO2 cell culture incubator at 37° C. The next day, the cells were treated with diluted compounds in a humidified, 5% CO2 cell culture incubator at 37° C. for 2 hours. The medium was removed from each well, and 50 μL of 1× lysis buffer from the assay kit was added into each well. The cells were incubated for 30 min at room temperature with shaking. Then 16 μL of lysate was transferred to a PROXIPLATE 384-plate (PerkinElmer 6008230), followed by addition of 4 μL of HTRF pre-mixed antibodies. After incubation overnight at room temperature, fluorescence signals in the plates were read on PHERAstar FSX instrument, using HTRF settings ([…]).
(§4) The relative cellular pBTK inhibition was calculated by HTRF signal change: The average of positive control well reading, and average of negative control reading were used as controls to calculate inhibition percentage.
(§5) The data was input into GraphPad Prism, using function “log(inhibitor) vs. response—Variable slope (four parameters)” to get IC50 values.
(TR-FRET usually uses a lanthanide donor and a delayed reading to cut background.)

Another assay has as its target T3, human BTK-WT (Homo sapiens, UniProt Q06187).
T3 construct: host or cells: HEK293 (ATCC CRL1573), lentiviral transduction, puromycin selected
Kind of assay: BTK-Y223 autophosphorylation in HEK293 cells stably expressing BTK-WT (HTRF). The assay is classed as cell-based. The settings on record: 2 hours treatment. On the procedure:
as §3, §4, §5

For the next assay, the target named is T4, BTK-C481S (Homo sapiens, UniProt Q06187, C481S).
T4 construct: purchased Abcam ABCAM 204166; host or cells: Baculovirus infected Sf9 cells
Kind of assay: BTK-C481S kinase activity assay (ADP-Glo). The following applies: BTK kinase inhibition, 30 min preincubation, 90 min reaction. The assay is classed as biochemical. The method, then: as §1, §2

pIC50: −log10 of the molar value.

Broadly, the pIC50 is −log10 of the IC50, conventionally taken in molar units. A low value points to a high IC50.

T3 sequence (Q06187 whole entry): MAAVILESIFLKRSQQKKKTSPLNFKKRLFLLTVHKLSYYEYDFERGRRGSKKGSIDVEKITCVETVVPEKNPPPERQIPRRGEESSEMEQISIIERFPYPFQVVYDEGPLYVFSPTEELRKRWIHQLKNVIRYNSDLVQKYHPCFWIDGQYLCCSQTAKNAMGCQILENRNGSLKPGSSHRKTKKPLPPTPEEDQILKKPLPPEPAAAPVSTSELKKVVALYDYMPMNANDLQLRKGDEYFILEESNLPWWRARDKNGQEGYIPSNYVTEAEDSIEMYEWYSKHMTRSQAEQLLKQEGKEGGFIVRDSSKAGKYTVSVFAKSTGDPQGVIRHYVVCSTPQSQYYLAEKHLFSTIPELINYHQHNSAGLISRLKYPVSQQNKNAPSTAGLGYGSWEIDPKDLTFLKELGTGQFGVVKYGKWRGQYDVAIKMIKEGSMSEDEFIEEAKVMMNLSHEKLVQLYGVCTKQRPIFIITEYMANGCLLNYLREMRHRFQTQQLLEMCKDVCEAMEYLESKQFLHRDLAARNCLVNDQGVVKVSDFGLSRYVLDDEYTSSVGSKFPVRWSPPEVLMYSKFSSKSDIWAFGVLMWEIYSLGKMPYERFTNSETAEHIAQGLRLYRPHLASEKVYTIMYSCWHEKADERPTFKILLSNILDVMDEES
T1 sequence (Q06187 whole entry): as above
T2 sequence (Q06187 whole entry C481S): as the sequence (Q06187 whole entry) above, with C481S counted along it
T4 sequence (Q06187 whole entry C481S): as the sequence (Q06187 whole entry) above, with C481S counted along it

With `COc1ccc(F)cc1C(=O)NCc1ccc(-n2nc(C3CCCC3)c(N)c2C(N)=O)cc1` [Example A15, 4-amino-3-cyclopentyl-1-(4-((5-fluoro-2-methoxybenzamido)methyl)phenyl)-1H-pyrazole-5-carboxamide], the pIC50 was 8.43 against full-length human BTK-WT; 7.54 in assay [1]; 7.08 on BTK-C481S mutant; 7.57 at human BTK-WT; 8.38 against BTK-C481S.

In the case of `COc1ccc(F)cc1C(=O)NCc1ccc(-n2nc(-c3cccs3)c(N)c2C(N)=O)cc1` [Example A14, 4-amino-1-(4-((5-fluoro-2-methoxybenzamido)methyl)phenyl)-3-(thiophen-2-yl)-1H-pyrazole-5-carboxamide], the pIC50 at full-length human BTK-WT was 8.10; in assay [1] it was 7.02; against BTK-C481S mutant, 6.68; against human BTK-WT, 7.09; at BTK-C481S it was 8.51.

Take `CC(C)c1nn(-c2ccc(CNC(=O)c3cccc4c3OCC4)cc2)c(C(N)=O)c1N` [Example A10, 4-amino-1-(4-((2,3-dihydrobenzofuran-7-carboxamido)methyl)phenyl)-3-isopropyl-1H-pyrazole-5-carboxamide]: the negative logarithm of the IC50 (pIC50) against full-length human BTK-WT is 7.21; against BTK-C481S, 7.22.

On to `COc1ccc(F)cc1C(=O)NCc1ccc(-n2nc(C3CCOC3)c(N)c2C(N)=O)cc1` (stereo not drawn) [Example A16, 4-amino-1-(4-((5-fluoro-2-methoxybenzamido)methyl)phenyl)-3-(tetrahydrofuran-3-yl)-1H-pyrazole-5-carboxamide], for which the pIC50 against full-length human BTK-WT is 7.82; in assay [1], 6.92; against BTK-C481S mutant, 6.64; on human BTK-WT, 6.92; on BTK-C481S, 7.96.

As to `COc1ccc(F)cc1C(=O)NCc1ccc(-n2nc(C3CCOCC3)c(N)c2C(N)=O)cc1` [Example A12, 4-amino-1-(4-((5-fluoro-2-methoxybenzamido)methyl)phenyl)-3-(tetrahydro-2H-pyran-4-yl)-1H-pyrazole-5-carboxamide], the pIC50 against full-length human BTK-WT was 7.59; in assay [1], 6.80; against BTK-C481S mutant, 6.74; against human BTK-WT it was 6.89; on BTK-C481S, 8.24.

Turning to `COc1ccc(F)cc1C(=O)NCc1ccc(-n2nc(C(C)C)c(N)c2C(N)=O)cc1` [Example A1, 4-amino-1-(4-((5-fluoro-2-methoxybenzamido)methyl)phenyl)-3-isopropyl-1H-pyrazole-5-carboxamide], the pIC50 at full-length human BTK-WT was 8.25; in assay [1], 7.33; on BTK-C481S mutant it was 6.94; against human BTK-WT, 7.26; at BTK-C481S, 8.44.

Take `CCOc1cc(CNC(=O)c2cc(F)ccc2OC)cc(F)c1-n1nc(C(C)C)c(N)c1C(N)=O` [Example A19, 4-amino-1-(2-ethoxy-6-fluoro-4-((5-fluoro-2-methoxybenzamido)methyl)phenyl)-3-isopropyl-1H-pyrazole-5-carboxamide]: the pIC50 on full-length human BTK-WT was 7.20; at BTK-C481S it was 7.17.

Turning to `COc1ccc(F)cc1C(=O)NCc1ccc(-n2nc(C3CCC(F)(F)CC3)c(N)c2C(N)=O)cc1` [Example A22, 4-amino-3-(4,4-difluorocyclohexyl)-1-(4-((5-fluoro-2-methoxybenzamido)methyl)phenyl)-1H-pyrazole-5-carboxamide], the pIC50 was 8.09 against full-length human BTK-WT; 6.96 in assay [1]; 6.92 at BTK-C481S mutant; 7.13 at human BTK-WT; 8.10 on BTK-C481S.

As for `COc1ccc(F)cc1C(=O)NCc1ccc(-n2nc(C3CCCOC3)c(N)c2C(N)=O)cc1` (stereo not drawn) [Example A13, 4-amino-1-(4-((5-fluoro-2-methoxybenzamido)methyl)phenyl)-3-(tetrahydro-2H-pyran-3-yl)-1H-pyrazole-5-carboxamide], the pIC50 at full-length human BTK-WT is 8.36; in assay [1] it was 7.02; on BTK-C481S mutant, 6.92; against human BTK-WT it was 7.24; on BTK-C481S, 8.57.

Take `CCOc1cc(CNC(=O)c2cc(F)ccc2OC)ccc1-n1nc(C(C)C)c(N)c1C(N)=O` [Example A5, 4-amino-1-(2-ethoxy-4-((5-fluoro-2-methoxybenzamido)methyl)phenyl)-3-isopropyl-1H-pyrazole-5-carboxamide]: the pIC50 was 7.96 at full-length human BTK-WT, 6.62 in assay [1] and 7.96 against BTK-C481S.

As to `COc1ccc(F)cc1C(=O)NCc1ccc(-n2nc(C(C)C)c(N)c2C(N)=O)c(F)c1` [Example A11, 4-amino-1-(2-fluoro-4-((5-fluoro-2-methoxybenzamido)methyl)phenyl)-3-isopropyl-1H-pyrazole-5-carboxamide], the pIC50 was 7.46 on full-length human BTK-WT and 7.57 at BTK-C481S.

`COc1ccc(F)cc1C(=O)NCc1ccc(-n2nc(N3CCOCC3)c(N)c2C(N)=O)cc1` [Example A17, 4-amino-1-(4-((5-fluoro-2-methoxybenzamido)methyl)phenyl)-3-morpholino-1H-pyrazole-5-carboxamide]: the pIC50 against full-length human BTK-WT is 7.06; on BTK-C481S it was 7.03.

As to `COc1ccccc1C(=O)NCc1ccc(-n2nc(C(C)C)c(N)c2C(N)=O)cc1` [Example A9, 4-amino-3-isopropyl-1-(4-((2-methoxybenzamido)methyl)phenyl)-1H-pyrazole-5-carboxamide], the pIC50 is 7.85 on full-length human BTK-WT; 6.85 in assay [1]; 6.77 against BTK-C481S mutant; 7.08 on human BTK-WT; 7.85 on BTK-C481S.

These data come from patent US20220169645A1, “COMPOUNDS AS BRUTON TYROSINE KINASE INHIBITORS, PREPARATION METHODS AND MEDICAL APPLICATIONS THEREOF” (Eternity Bioscience Inc., priority 2020, published 2022).
